Experimental data from publication PMC3117126 (Journal of medicinal chemistry, 2011).
Where a name gives a salt, the structure may show the parent alone. Each block holds one molecule with its values, some of them ahead of it.

Legend:
human P2Y4 receptor [1] = target: T1, human P2Y4 receptor (Homo sapiens, UniProt P51582); details: cited from earlier work
[2] = Chemical stability: hydrolysis at 37°C and pH 1.5, HPLC; format: physicochemical; details: pH 1.5, 0.2 mg/mL, compared with 1 (UTP)
human P2Y4 receptor [3] = target: T1, human P2Y4 receptor; assay: PLC activation; format: cell-based; details: for selectivity for human P2Y4 over P2Y2 and P2Y6 receptors: over both P2Y2 and P2Y6
human P2Y2 receptor = human P2Y2 receptor (Homo sapiens, UniProt P41231); assay: PLC activation; format: cell-based; details: for effect at 10 µM, hP2Y2: printed in EC50 column, NE = no effect at 10 µM
Chain of human P2Y2 receptor (P41231 whole entry): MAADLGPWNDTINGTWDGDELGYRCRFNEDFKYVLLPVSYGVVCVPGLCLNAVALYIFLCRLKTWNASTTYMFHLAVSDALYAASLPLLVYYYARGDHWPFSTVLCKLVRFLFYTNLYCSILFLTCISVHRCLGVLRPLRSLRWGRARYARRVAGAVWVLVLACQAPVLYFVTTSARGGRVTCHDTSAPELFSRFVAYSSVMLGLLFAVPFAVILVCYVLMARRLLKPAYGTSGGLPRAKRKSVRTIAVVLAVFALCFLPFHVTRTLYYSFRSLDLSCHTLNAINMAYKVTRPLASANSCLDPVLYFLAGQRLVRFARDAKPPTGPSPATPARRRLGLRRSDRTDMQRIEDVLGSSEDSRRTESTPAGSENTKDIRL

T1 sequence (P51582 whole entry): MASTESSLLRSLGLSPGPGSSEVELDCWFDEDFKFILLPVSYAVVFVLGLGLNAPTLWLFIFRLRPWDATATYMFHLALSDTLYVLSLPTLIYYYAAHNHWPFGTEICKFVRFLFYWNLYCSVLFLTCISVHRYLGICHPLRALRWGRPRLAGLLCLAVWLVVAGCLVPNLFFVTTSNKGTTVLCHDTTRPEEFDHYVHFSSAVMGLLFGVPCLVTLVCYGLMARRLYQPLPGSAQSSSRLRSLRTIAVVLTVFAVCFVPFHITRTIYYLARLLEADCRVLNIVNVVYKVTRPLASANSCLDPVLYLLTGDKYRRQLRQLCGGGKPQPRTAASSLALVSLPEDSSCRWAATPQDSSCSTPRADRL

SMILES: [N-]=[N+]=N[C@@H]1[C@H](O)[C@@H](COP(=O)(O)OP(=O)(O)OP(=O)(O)O)O[C@H]1n1ccc(=O)[nH]c1=O [Compound 3]
selectivity for the P2Y4 receptor in comparison to the P2Y2 receptor (human P2Y4 receptor [1]): 5 fold

SMILES: O=c1[nH]/c(=N\OCCc2ccccc2)ccn1[C@@H]1O[C@H](COP(=O)(O)OP(=O)(O)OP(=O)(O)O)[C@@H](O)[C@H]1O [Compound 15, N^4-Phenylethoxycytidine-5′-triphosphate triethylammonium salt]
selectivity for human P2Y4 over P2Y2 and P2Y6 receptors (human P2Y4 receptor [3]): ≥ 10 fold

SMILES: O=c1[nH]/c(=N\OCCCc2ccccc2)ccn1[C@@H]1O[C@H](COP(=O)(O)OP(=O)(O)OP(=O)(O)O)[C@@H](O)[C@H]1O [Compound 16, N^4-Phenylpropoxycytidine-5′-triphosphate triethylammonium salt]
selectivity for human P2Y4 over P2Y2 and P2Y6 receptors (human P2Y4 receptor [3]): ≥ 10 fold

SMILES: COc1ccc(OP(=O)(O)OP(=O)(O)OP(=O)(O)OP(=O)(O)OC[C@H]2O[C@@H](n3ccc(=O)[nH]c3=O)[C@H](O)[C@@H]2O)cc1 [Compound 22, Uridine-5′-(4-methoxyphenyl)-tetraphosphate triethylammonium salt]
effect at 10 µM, hP2Y2 (human P2Y2 receptor): ≤50% at 10 µM

SMILES: COc1cccc(OP(=O)(O)OP(=O)(O)OP(=O)(O)OP(=O)(O)OC[C@H]2O[C@@H](n3ccc(=O)[nH]c3=O)[C@H](O)[C@@H]2O)c1 [Compound 23, Uridine-5′-(3-methoxyphenyl)-tetraphosphate triethylammonium salt]
effect at 10 µM, hP2Y2 (human P2Y2 receptor): ≤50% at 10 µM

SMILES: O=c1ccn([C@@H]2O[C@H](COP(=O)(O)OP(=O)(O)OP(=O)(O)OP(=O)(O)Oc3ccc([N+](=O)[O-])cc3)[C@@H](O)[C@H]2O)c(=O)[nH]1 [Compound 24, Uridine-5′-(4-nitrophenyl)-tetraphosphate triethylammonium salt]
effect at 10 µM, hP2Y2 (human P2Y2 receptor): abolished activity

SMILES: O=c1ccn([C@@H]2O[C@H](COP(=O)(O)OP(=O)(O)C(Cl)(Cl)P(=O)(O)OP(=O)(O)O[C@H]3O[C@H](CO)[C@@H](O)[C@H](O)[C@H]3O)[C@@H](O)[C@H]2O)c(=O)[nH]1 [Compound 26, Uridine-5′-glucose-1′-β,γ-dichloromethylene tetraphosphate triethylammonium salt]
effect at 10 µM, hP2Y2 (human P2Y2 receptor): ≤50% at 10 µM

The remaining lines, values ahead:

stability at pH 1.5 [2]: less stable at pH 1.5 than 1
SMILES: O=c1ccn([C@@H]2O[C@H](COP(=O)(O)OP(=O)(O)OP(=O)(O)OP(=O)(O)O[C@H]3O[C@H](CO)[C@@H](O)[C@H](O)[C@H]3O)[C@@H](O)[C@H]2O)c(=O)[nH]1 [Compound 8, Up4-[1]glucose, reference compound]

increase in P2Y4 receptor potency relative to Up4-[1]glucose 8 (human P2Y4 receptor [3]; compared with 8): 11 fold
SMILES: O=c1ccn([C@@H]2O[C@H](COP(=O)(O)OP(=O)(O)OP(=O)(O)OP(=O)(O)O[C@H]3O[C@H](CO)[C@@H](O)[C@@H](O)[C@H]3O)[C@@H](O)[C@H]2O)c(=O)[nH]1 [Compound 28, Uridine-5′-allose-1′-tetraphosphate triethylammonium salt]

reduction in potency at P2Y2 receptor relative to 8 (human P2Y2 receptor; fold less potent than 8): 9 fold
SMILES: O=c1ccn([C@@H]2O[C@H](COP(=O)(O)OP(=O)(O)OP(=O)(O)OP(=O)(O)O[C@H]3OC[C@@H](O)[C@H](O)[C@H]3O)[C@@H](O)[C@H]2O)c(=O)[nH]1 [Compound 30, Uridine-5′-xylose-1′-tetraphosphate triethylammonium salt]

stability at pH 1.5 [2]: much more labile
selectivity for human P2Y4 over P2Y2 and P2Y6 receptors (human P2Y4 receptor [3]): ≥ 10 fold
SMILES: O=c1ccn([C@@H]2O[C@H](COP(=O)(O)OP(=O)(O)OP(=O)(O)OP(=O)(O)O[C@H]3O[C@H](CO)[C@@H](O)[C@H](F)[C@H]3O)[C@@H](O)[C@H]2O)c(=O)[nH]1 [Compound 34, P^1-(Uridine-5′-)P^4-(3′-deoxy-3′-fluoroglucose-1′-)tetraphosphate triethylammonium salt]
